From ChEMBL document CHEMBL1201862, “PubChem BioAssay data set” (2004)
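Where inhibition never reached the appropriate level, the endpoint shown equals the highest concentration tested. Otherwise, values were interpolated linearly from a five-concentration, 48-hour dose response in 96-well plates. GI50 marks 50% less growth.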 Active and inactive are the calls of the source. Cut-off read from the data, not from the text of the source: active = GI50 up to about 1.1 µM and inactive = higher.

Tests used:
Assay in all cases: DTP human tumour cell line panel, 48 h
PC-3 = system: PC-3
SNB-19 = system: SNB-19
CAKI-1 = system: CAKI-1
A549 = system: A549
MDA-MB-435 = system: MDA-MB-435
ACHN = system: ACHN
NCI-H522 = system: NCI-H522
SR = system: SR
NCI-H23 = system: NCI-H23
OVCAR-3 = system: OVCAR-3
SK-MEL-28 = system: SK-MEL-28
U-251 = system: U-251
NCI-H460 = system: NCI-H460
UACC-62 = system: UACC-62
KM12 = system: KM12
Malme-3M = system: Malme-3M
IGROV-1 = system: IGROV-1
SK-MEL-5 = system: SK-MEL-5
BT-549 = system: BT-549

| SMILES | GI50 (PC-3) | GI50 (SNB-19) | GI50 (CAKI-1) | GI50 (A549) | GI50 (MDA-MB-435) | GI50 (ACHN) | GI50 (NCI-H522) | GI50 (SR) | GI50 (NCI-H23) | GI50 (OVCAR-3) | GI50 (SK-MEL-28) | GI50 (U-251) | GI50 (NCI-H460) | GI50 (UACC-62) | GI50 (KM12) | GI50 (Malme-3M) | GI50 (IGROV-1) | GI50 (SK-MEL-5) | GI50 (BT-549) |
| --- | --- | --- | --- | --- | --- | --- | --- | --- | --- | --- | --- | --- | --- | --- | --- | --- | --- | --- | --- |
| O=C(NCC(=O)N1CCCC1C(=O)OC(=O)C1CCCN1C(=O)CNC(=O)OCc1ccccc1)OCc1ccccc1 (stereo not given) | 35.8 µM (inactive) | 39.4 µM (inactive) | > 100 µM (inactive) | 44.8 µM (inactive) | 22.5 µM (inactive) | 36.2 µM (inactive) | 52.7 µM (inactive) | 44.5 µM (inactive) | 40.9 µM (inactive) | 43.3 µM (inactive) | 28.4 µM (inactive) | 41.8 µM (inactive) | 33.1 µM (inactive) | 14.7 µM (inactive) | 18.2 µM (inactive) | 19.1 µM (inactive) | 33.8 µM (inactive) | 26.5 µM (inactive) | – |
| CCC(C)(C)/C(CC(O)(C(F)(F)F)C(F)(F)F)=N\O | > 100 µM (inactive) | > 100 µM (inactive) | > 100 µM (inactive) | > 100 µM (inactive) | > 100 µM (inactive) | > 100 µM (inactive) | > 100 µM (inactive) | > 100 µM (inactive) | > 100 µM (inactive) | > 100 µM (inactive) | > 100 µM (inactive) | > 100 µM (inactive) | > 100 µM (inactive) | > 100 µM (inactive) | > 100 µM (inactive) | > 100 µM (inactive) | > 100 µM (inactive) | > 100 µM (inactive) | – |
| CCC[C@H](N[S+]([O-])c1ccc(C)cc1)C(C(=O)OCC)=C(c1ccccc1)c1ccccc1 (stereo not given in full) | 15 µM (inactive) | 44.3 µM (inactive) | 13.3 µM (inactive) | 21.5 µM (inactive) | 17.1 µM (inactive) | 22.4 µM (inactive) | 17.3 µM (inactive) | – | 27.1 µM (inactive) | – | 27.6 µM (inactive) | 16.2 µM (inactive) | 17 µM (inactive) | 13.4 µM (inactive) | 18.6 µM (inactive) | 17.4 µM (inactive) | 25.1 µM (inactive) | 22.1 µM (inactive) | 21.2 µM (inactive) |
| C=Cc1c(C)c(OC)cc2c1Oc1ccc(OC)c(C)c1CC2 | 52.6 µM (inactive) | > 100 µM (inactive) | > 100 µM (inactive) | > 100 µM (inactive) | 76 µM (inactive) | > 100 µM (inactive) | 88.5 µM (inactive) | > 100 µM (inactive) | > 100 µM (inactive) | – | > 100 µM (inactive) | > 100 µM (inactive) | > 100 µM (inactive) | > 100 µM (inactive) | > 100 µM (inactive) | > 100 µM (inactive) | > 100 µM (inactive) | 53.6 µM (inactive) | – |
| CSc1ccc(NC(=O)CCl)cc1 | 3.9 µM (inactive) | 4.86 µM (inactive) | 2.97 µM (inactive) | 2.44 µM (inactive) | 4.03 µM (inactive) | > 10 µM (inactive) | 1.95 µM (inactive) | 2.7 µM (inactive) | 9.59 µM (inactive) | 3.75 µM (inactive) | 5.7 µM (inactive) | 5.19 µM (inactive) | 2.41 µM (inactive) | 1.85 µM (inactive) | > 10 µM (inactive) | – | 4.73 µM (inactive) | 2.08 µM (inactive) | – |
| COc1cccc(C2c3cc4c(cc3OC(N3CCCC3)C2C)OCO4)c1OC (stereo not given) | 4.48 µM (inactive) | 1.58 µM (inactive) | 0.561 µM (active) | 3.53 µM (inactive) | 4.06 µM (inactive) | 2.49 µM (inactive) | 3.69 µM (inactive) | 3.03 µM (inactive) | 4.37 µM (inactive) | 1.66 µM (inactive) | – | – | 3.17 µM (inactive) | 5.78 µM (inactive) | 3.08 µM (inactive) | – | 2.78 µM (inactive) | 2.87 µM (inactive) | – |
| CC(=O)[C@]12OC(=O)C3=C1[C@H](CC[C@@H]3C)[C@@H](C)C[C@H]2C=C(C)C | 9.2 µM (inactive) | 8.09 µM (inactive) | 6.49 µM (inactive) | 7.48 µM (inactive) | 7.93 µM (inactive) | 8.11 µM (inactive) | 5.36 µM (inactive) | 7.87 µM (inactive) | 9.14 µM (inactive) | 7.31 µM (inactive) | – | 7.8 µM (inactive) | 8.63 µM (inactive) | 5.68 µM (inactive) | 7.62 µM (inactive) | – | 7.35 µM (inactive) | 5.52 µM (inactive) | – |
| CCSc1n/c(=C\c2ccco2)c2nncn12 | > 100 µM (inactive) | > 100 µM (inactive) | – | > 100 µM (inactive) | > 100 µM (inactive) | > 100 µM (inactive) | > 100 µM (inactive) | > 100 µM (inactive) | > 100 µM (inactive) | > 100 µM (inactive) | > 100 µM (inactive) | > 100 µM (inactive) | – | > 100 µM (inactive) | > 100 µM (inactive) | > 100 µM (inactive) | > 100 µM (inactive) | > 100 µM (inactive) | – |
| CCOc1ccc(N/C(=C(/C(Cl)=C(/Cl)NCCO)[N+](=O)[O-])n2nnc3ccccc32)cc1 | 25.7 µM (inactive) | 51.1 µM (inactive) | 14.4 µM (inactive) | 44 µM (inactive) | 16.4 µM (inactive) | 19.5 µM (inactive) | – | – | 17.5 µM (inactive) | 18.1 µM (inactive) | 18.7 µM (inactive) | 21.8 µM (inactive) | 48 µM (inactive) | 21.9 µM (inactive) | 24.8 µM (inactive) | 18.4 µM (inactive) | – | – | 18.5 µM (inactive) |
| N/C(=N\O)NCCN1CCCCCCC1 | 28.4 µM (inactive) | > 100 µM (inactive) | > 100 µM (inactive) | > 100 µM (inactive) | > 100 µM (inactive) | 20.1 µM (inactive) | > 100 µM (inactive) | > 100 µM (inactive) | > 100 µM (inactive) | > 100 µM (inactive) | > 100 µM (inactive) | – | > 100 µM (inactive) | > 100 µM (inactive) | > 100 µM (inactive) | > 100 µM (inactive) | 26.7 µM (inactive) | > 100 µM (inactive) | – |
| Cc1nc2c(O)cc3c4c(n(Cc5ccccc5)c3c2nc1C)C(=O)CCC4 | 49.7 µM (inactive) | 23.3 µM (inactive) | – | 50.5 µM (inactive) | > 100 µM (inactive) | 25.2 µM (inactive) | – | 18 µM (inactive) | 51.2 µM (inactive) | 28.2 µM (inactive) | 22.5 µM (inactive) | 12 µM (inactive) | 83 µM (inactive) | 24.5 µM (inactive) | > 100 µM (inactive) | 27.8 µM (inactive) | – | 25.5 µM (inactive) | – |
| Cc1cc(N(CCC#N)CCC#N)ccc1/C=N/NC(=O)c1cc(Cl)ccc1O | > 100 µM (inactive) | – | > 100 µM (inactive) | > 100 µM (inactive) | > 100 µM (inactive) | – | 37.3 µM (inactive) | > 100 µM (inactive) | > 100 µM (inactive) | > 100 µM (inactive) | – | 49.3 µM (inactive) | > 100 µM (inactive) | > 100 µM (inactive) | – | > 100 µM (inactive) | > 100 µM (inactive) | > 100 µM (inactive) | – |
